Data: ChEMBL document CHEMBL1821712, “Antimalarial β-carbolines from the New Zealand ascidian Pseudodistoma opacum” (J Nat Prod, 2011)
pIC50: −log10 of the molar value.

Assays:
[1] = tested on: Trypanosoma brucei rhodesiense; assay: Antiparasitic activity against Trypanosoma brucei rhodesiense STIB 900 trypomastigotes stage forms incubated for 72 hrs by Alamar blue staining based fluorometric assay; assay type: functional, organism-based; conditions: STIB 900, 72 h
Trypanosoma cruzi = assay: Antiparasitic activity against Trypanosoma cruzi Tulahuen C4 amastigotes stage forms incubated for 96 hrs by beta-galactosidase reporter gene assay; assay type: functional, organism-based; conditions: Tulahuen C4, 96 h
Leishmania donovani = assay: Antiparasitic activity against Leishmania donovani MHOM/ET/67/L82 amastigotes/axenic stage forms incubated for 72 hrs by Alamar Blue staining based fluorometric assay; assay type: functional, organism-based; conditions: MHOM/ET/67/L82, 72 h
L6 = assay: Cytotoxicity against rat L6 cells incubated for 72 hrs by Alamar Blue staining based fluorometric assay; assay type: cell-based; conditions: L6, 72 h
Plasmodium falciparum [2] = assay: Antiparasitic activity against Plasmodium falciparum K1 IEF stage forms incubated for 72 hrs by Alamar Blue staining based fluorometric assay; conditions: K1, 72 h
Plasmodium falciparum [3] = assay: Antiparasitic activity against chloroquine-resistant Plasmodium falciparum Dd2; assay type: functional, organism-based
Plasmodium falciparum [4] = assay: Antiparasitic activity against chloroquine-sensitive Plasmodium falciparum 3D7; assay type: functional, organism-based

Row | pIC50 [1] | pIC50 (Trypanosoma cruzi) | Compound | pIC50 (Leishmania donovani) | pIC50 (L6) | pIC50 (Plasmodium falciparum [2]) | pIC50 (Plasmodium falciparum [3]) | pIC50 (Plasmodium falciparum [4])
1 | 4.52 | 4.07 | N=C(N)NCCCCc1nccc2c1[nH]c1cc(Br)ccc12 [OPACALINE A] | 3.89 | 4.10 | 5.60 |  | 
2 |  |  | CCCCCCCCCCCCCCCCOP(=O)([O-])OCC[N+](C)(C)C [MILTEFOSINE] | 6.28 |  |  |  | 
3 | 5.11 | 3.89 | N=C(N)NCCCc1nccc2c1[nH]c1ccccc12 | < 3.70 | 4.00 | 5.11 |  | 
4 |  |  | N=C(N)NCCC[C@H]1NCCc2c1[nH]c1cc(Br)ccc21 |  |  |  | 5.27 | 5.46
5 | 4.77 | 4.29 | O=C1c2ccccc2C(=O)N1CCCC1NCCc2c1[nH]c1ccccc21 (stereo not given) | 3.82 | 3.96 | 4.85 |  | 
6 | 4.57 | 3.97 | N=C(N)NCCCCc1nccc2c3ccc(Br)cc3n(O)c12 [OPACALINE B] | 4.00 | 3.92 | 5.35 |  | 
7 | 4.92 | 3.96 | N=C(N)NCCCCc1nccc2c1[nH]c1ccccc12 | < 3.70 | 4.08 | 5.19 |  | 
8 |  |  | COc1cc([C@@H]2c3cc4c(cc3[C@H](O)[C@H]3COC(=O)[C@H]23)OCO4)cc(OC)c1OC [PODOFILOX] |  | 7.72 |  |  | 

Row | Compound | pIC50 [1] | pIC50 (Trypanosoma cruzi) | pIC50 (Leishmania donovani) | pIC50 (L6) | pIC50 (Plasmodium falciparum [2]) | pIC50 (Plasmodium falciparum [3]) | pIC50 (Plasmodium falciparum [4])
9 | O=C(Cn1ccnc1[N+](=O)[O-])NCc1ccccc1 [BENZNIDAZOLE] |  | 5.74 |  |  |  |  | 
